# Reference: US9107936B2, “Antagonists of GRASP55 for use as a medicament” (Institut National de la Sante et de la Recherche Medicale …, priority 2012, dated 2015)
# How the values were obtained:
# Type in all cases: binding, murine
# [1] = biological target: T1, GST-PDZI′+II′ (Grasp55 residues 1 to 208) (Mus musculus, UniProt Q99JX3); experiment: HTRF measurement of interaction of biotinylated C-terminal peptides with GST-PDZI′+II′; settings: biotinylated JAM-C peptide, GST-PDZI′+II′
# T1 construct: and 1 to 208 corresponding respectively to the PDZI′, PDZII′ and PDZI′+II′ constructs; made in house; host or cells: bacteria Rosetta
# Method: (§1) To refine and extend the results obtained by yeast two hybrid, an Homogenous Time Resolved Fluorescence (HTRF) assay have been set-up to measure interactions of various peptides with recombinant GST proteins corresponding to different regions of Grasp55.
# (§2) Briefly, the technique consisted in incubating 18 h at 4° C. the biotinylated-Cterminal peptides (SEQ ID NO: 26 to 34) at the concentration of 1.9*10^−7M with the GST-fusion protein, the terbium-coupled anti-GST antibody (8*10^−10M each) and the d2-coupled streptavidin (4*10^−8M) (both from Cisbio), in 0.1 mL of Hepes 0.05M, NaCl 0.15M BSA 0.1% pH 7.2. In some experiments, competing peptide or chemicals were added to the incubation mix at the indicated concentration. After incubation, microtiter plates (Costar #3693) were red using PolarScan Omega (BMG Labtech) equipped for HTRF measurements. Upon excitation at 320 nm, a 620 nm fluorescence emission is produced by the donor terbium that in turn excites a 665 nm light emission by a Streptavidin-d2 (acceptor) bound to the Biotinylated interacting Peptide if the latter is interacting with the donor. The […] R ratio is obtained and a Delta F is computed as: [(Rsample−RNSB)/RNSB]*100 where RNSB is the Non Specific Background signal determined in incubates where the GST-fusion protein was omitted.
# (§3) Having shown that HTRF measurement of interaction is a reliable technology to identify inhibitors of interaction. A screen of a chemical compound library provided by MRCt has been initiated. The screening consisted in the same HTRF technique used in Example 7 except that compounds from the library were added in the incubation mix at the final concentration of 6.6×10^−5M. […] Since such a result could be either due to a specific inhibition of the JAM-C peptide interaction to the recombinant Grasp55 PDZ domains or to a non-specific inhibition of the FRET signal between donor and acceptor in HTRF technology, the twenty selected compounds have been further tested. Indeed, compounds could potentially interfere with the binding of the anti-GST antibody terbium-labeled to the GST of the fusion protein, the binding of Streptavidin-d2 to the biotinylated peptide or promote strong interference at 320, […] or 665 nm. Thus, the putative hits obtained were screened for non-specific inhibition. To this end, the GST-PDZI′+II′ recombinant protein was biotinylated using Sulfo-NHS Biotin according to manufacturer instructions (Pierce). This allows designing an HTRF assay in which the d2-coupled streptavidin (acceptor) and the terbium-coupled anti-GST antibody are directly bound to recombinant GST-PDZI′+II′ protein and produce DeltaF signal independently of the biotinylated peptide. The twenty selected compounds were thus tested in this assay to eliminate those giving false inhibition of the HTRF signals while inhibitors of Biotinylated peptide interaction with GST-PDZI′+II′ should not interfere in this assay.
# [2] = biological target: T2, GST-PDZI′ (Grasp55 residues 1 to 107) (Mus musculus, UniProt Q99JX3); experiment: HTRF measurement of interaction of biotinylated C-terminal peptides with GST-PDZI′; settings: biotinylated JAM-C peptide, GST-PDZI′
# T2 construct: GST fusion proteins encompassing residues 1 to 107; made in house; host or cells: bacteria Rosetta
# Method: as §1, §2, §3
# [3] = biological target: T3, GST-GraspFL (GST-Grasp55 full length) (Mus musculus, UniProt Q99JX3); experiment: HTRF competition with GST-Grasp55 full length; settings: biotinylated JAM-C peptide
# T3 construct: GST-GraspFL (GST-Grasp55 full length); made in house; host or cells: bacteria Rosetta
# Method: as §1
# as §2, with “omitted. […]” for “omitted.”
sequence,measurement,setting,value
NYIRTSEEGDFRHKSSFVI [unlabelled peptide],EC50 of competition of the HTRF signal,[1],low micromolar range
same,increase in EC50 with GST-PDZI′ versus GST-PDZI′+II′ and GST-GraspFL,[2],twenty fold increase in EC50
same,EC50 of competition of the HTRF signal,[3],low micromolar range
